Results as given in publication PMC12072223 (CPT: Pharmacometrics & Systems Pharmacology, 2025).
“And” between values parts separate entries of the source, which are not always exact repeats. Identical values can stand only once. Like-named read-outs stand apart in the source and are kept apart here.

What was measured:
OAT3 [1] = target: T1, OAT3 (Homo sapiens, UniProt Q8TCC7); assay: Inhibition of OAT3-mediated uptake in transfected HEK293 cells; type: in vitro ADME; details: from in vitro IC50 values
T1 sequence (Q8TCC7 1-542): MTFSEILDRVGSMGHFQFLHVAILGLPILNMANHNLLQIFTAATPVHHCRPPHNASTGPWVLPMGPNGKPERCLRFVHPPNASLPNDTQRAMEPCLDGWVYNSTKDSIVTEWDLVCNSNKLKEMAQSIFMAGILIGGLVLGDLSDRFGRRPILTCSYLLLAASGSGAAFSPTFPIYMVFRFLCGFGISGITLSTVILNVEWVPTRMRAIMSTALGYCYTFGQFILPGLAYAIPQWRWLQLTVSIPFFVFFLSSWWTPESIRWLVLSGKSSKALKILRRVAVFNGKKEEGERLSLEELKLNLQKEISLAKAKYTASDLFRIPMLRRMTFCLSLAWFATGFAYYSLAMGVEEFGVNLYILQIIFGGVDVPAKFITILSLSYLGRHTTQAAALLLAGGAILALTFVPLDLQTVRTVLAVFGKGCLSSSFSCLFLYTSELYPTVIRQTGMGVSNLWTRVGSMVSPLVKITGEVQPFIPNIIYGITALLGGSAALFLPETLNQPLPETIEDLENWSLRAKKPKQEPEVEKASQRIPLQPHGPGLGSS

[2] = PDA plasma and urine levels at baseline in five clinical studies; type: in vivo, human; details: for AUC(0-t) / Cmax / concentration at 0 min / CL renal: human; for AUC(0-t) / Cmax / concentration at 0 min: plasma; for AUC(0-t): AUC0-24h; for concentration at 0 min: predose (0 min) plasma concentration; for CL renal: CLR
OAT1 = target: T2, OAT1 (Homo sapiens, UniProt Q4U2R8); assay: PDA uptake in OAT1-transfected HEK293 cells and RAF scaling; type: in vitro ADME
T2 sequence (Q4U2R8 1-563): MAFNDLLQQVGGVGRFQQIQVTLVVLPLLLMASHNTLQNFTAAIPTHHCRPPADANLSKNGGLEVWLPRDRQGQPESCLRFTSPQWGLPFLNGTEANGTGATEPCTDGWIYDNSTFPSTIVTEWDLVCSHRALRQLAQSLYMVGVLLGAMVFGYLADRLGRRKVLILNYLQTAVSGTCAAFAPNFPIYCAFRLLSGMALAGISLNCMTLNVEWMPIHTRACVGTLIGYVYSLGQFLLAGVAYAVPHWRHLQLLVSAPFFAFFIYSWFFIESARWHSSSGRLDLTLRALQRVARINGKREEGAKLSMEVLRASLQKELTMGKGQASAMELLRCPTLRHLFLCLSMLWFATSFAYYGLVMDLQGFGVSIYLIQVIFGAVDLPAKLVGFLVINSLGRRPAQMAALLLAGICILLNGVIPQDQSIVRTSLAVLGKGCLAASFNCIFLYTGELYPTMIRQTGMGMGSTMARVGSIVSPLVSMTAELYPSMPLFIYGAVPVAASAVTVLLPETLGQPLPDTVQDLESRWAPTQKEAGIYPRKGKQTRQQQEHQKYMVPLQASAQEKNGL

OAT1/3 [3] = assay: Effect of OAT inhibitors on PDA pharmacokinetics in clinical DDI studies; details: for AUC ratio / Cmax ratio: PDA; for AUC(0-t) / Cmax: both, human, in vivo
OAT3 [4] = target: T1, OAT3; assay: PDA uptake in OAT3-transfected HEK293 cells and RAF scaling; type: in vitro ADME
[5] = set-up: species or system human; details: PDA; in vitro-in vivo scaling
OAT1/3 [6] = details: PDA, cited from earlier work
[7] = PDA, cited from earlier work
OAT2 = target: T3, OAT2 (Homo sapiens, UniProt Q9Y694); assay: PDA uptake in OAT2-transfected HEK293 cells and RAF scaling; type: in vitro ADME
T3 sequence (Q9Y694 1-546 isoform Q9Y694-2): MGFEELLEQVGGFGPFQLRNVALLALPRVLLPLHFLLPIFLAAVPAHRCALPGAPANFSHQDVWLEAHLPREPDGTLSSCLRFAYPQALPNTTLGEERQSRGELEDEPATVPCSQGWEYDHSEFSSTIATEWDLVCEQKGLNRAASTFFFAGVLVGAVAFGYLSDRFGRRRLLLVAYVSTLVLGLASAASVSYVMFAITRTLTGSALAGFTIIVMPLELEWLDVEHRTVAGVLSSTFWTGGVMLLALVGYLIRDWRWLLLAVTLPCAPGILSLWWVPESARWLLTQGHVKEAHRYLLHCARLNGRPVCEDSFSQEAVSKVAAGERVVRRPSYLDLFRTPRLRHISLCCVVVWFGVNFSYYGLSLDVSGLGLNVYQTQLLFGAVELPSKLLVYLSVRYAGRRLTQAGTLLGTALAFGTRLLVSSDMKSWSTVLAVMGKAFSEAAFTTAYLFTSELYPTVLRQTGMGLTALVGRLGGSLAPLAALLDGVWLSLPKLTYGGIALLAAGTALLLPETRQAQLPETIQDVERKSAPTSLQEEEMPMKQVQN

[8] = both, PDA plasma, Study 1 baseline (no inhibitor), n=12
[9] = both, PDA plasma, Study 2 baseline, n=12
[10] = both, PDA plasma, Study 3 baseline, n=12
[11] = male, PDA plasma, Study 5 baseline, males, n=23
[12] = physiological scalars and relative activity factors
[13] = presence/absence of probenecid 1000 mg BID, Study 1
[14] = presence/absence of ritlecitinib 200 mg QD, Study 2
[15] = Shen 2019 Study 1, presence/absence of probenecid
[16] = Shen 2019 Study 1, probenecid 1000 mg single oral dose
[17] = Shen 2019 Study 2, presence/absence of probenecid
[18] = Shen 2019 Study 2, probenecid 1000 mg single oral dose
[19] = Willemin 2021, presence/absence of probenecid
[20] = Willemin 2021, probenecid 500 mg multiple oral doses

CCCN(CCC)S(=O)(=O)c1ccc(C(=O)O)cc1 [Probenecid]
potency as inhibitor for OAT3 versus OAT1 (OAT3 [1]): 5 fold

Cc1ncc(CO)c(C(=O)O)c1O [PDA, Pyridoxic acid]
intra-individual variability in plasma concentration across 0-24 h ([2]; PDA): 16 % CV | amount excreted unchanged in urine lower in White males than Japanese males ([2]; PDA, Studies 4 and 5): 35% | variability in predose plasma concentrations and AUC0-24h ([2]; PDA, across the five studies): < 6 fold | inter-individual (overall) variability in plasma concentration ([2]; PDA, all five studies, n = 71): ~ 40% and < 40% | overall variability in AUC0-24h ([2]; PDA, five studies): 38% | overall variability in predose plasma concentration ([2]; PDA, five studies): 44% | AUC0-24h / baseline plasma level higher in White males than Japanese males ([2]; PDA, p < 0.05): 38% | CLR lower in White males than Japanese males ([2]; PDA, p < 0.05): ~ 54% | amount excreted in urine higher in Japanese males than White males ([2]; PDA, p < 0.05): 1.5 fold | renal clearance higher in Japanese males than White males ([2]; PDA, p < 0.05): 2.2 fold and ~ 2.2 fold | average AUC0-24h and Cmax lower in Hispanic/Latino compared to Whites ([2]; PDA, p > 0.05): ~ 30% | AUC0-24h higher in Study 5 compared to Study 4 ([2]; PDA, ~70% White males vs all Japanese males): 35% | AUC(0-t) [2, 8]: 86.7 ± 47.4 ng·h/mL | AUC(0-t) [2, 9]: 70.5 ± 24.3 ng·h/mL | AUC(0-t) [2, 10]: 64.2 ± 21.2 ng·h/mL | Cmax [2, 8]: 4.6 ± 2.5 ng/mL | Cmax [2, 9]: 3.8 ± 1.3 ng/mL | Cmax [2, 10]: 3.5 ± 1.1 ng/mL | concentration at 0 min ([2]; both, mean, PDA, across the five studies): 3.3 ng/mL | concentration at 0 min ([2]; both, range, PDA, across the five studies): 1.6 to 9.2 ng/mL | AUC(0-t) ([2]; male, PDA plasma baseline, males only, Japanese (13)): 56.5 ± 15.2 ng·h/mL | AUC(0-t) ([2]; male, PDA plasma baseline, males only, White (37)): 78.2 ± 28.2 ng·h/mL | AUC(0-t) [2, 11]: 74.6 ± 15.7 ng·h/mL | Cmax [2, 11]: 4.6 ± 1.9 ng/mL | CL renal ([2]; male, urine and plasma, PDA, Study 5 baseline): 230 ± 54.2 mL/min | CL renal ([2]; male, urine, PDA, Japanese males (13)): 546 ± 122 mL/min | CL renal ([2]; male, urine, PDA, White males (16)): 250 ± 48.2 mL/min | ft (fraction transported) OAT1 (OAT1; PDA renal secretion): < 0.1 | contribution of OAT1-specific active secretion to total CLR (OAT1; PDA, in vitro-in vivo scaling): 7% | active uptake clearance via OAT1, scaled (OAT1; [12]): 3.31 mL/min/kg | AUC ratio (OAT1/3 [3]; [13]): 3.2 | Cmax ratio (OAT1/3 [3]; [13]): 3 | AUC ratio (OAT1/3 [3]; [14]): 1.1 | Cmax ratio (OAT1/3 [3]; [14]): 1.1 | AUC ratio (OAT1/3 [3]; presence/absence of tafamidis 61 mg, Study 3): 1.2 | AUC(0-t) (OAT1/3 [3]; 200 mg): 72.8 ± 22.6 ng·h/mL | Cmax (OAT1/3 [3]; 200 mg): 3.9 ± 1 ng/mL | AUC(0-t) (OAT1/3 [3]; 1000 mg): 235 ± 76 ng·h/mL | Cmax (OAT1/3 [3]; 1000 mg): 11.9 ± 3.4 ng/mL | ft (fraction transported) OAT3 (OAT3 [4]; PDA renal secretion): 0.82 | active uptake clearance via OAT3, scaled (OAT3 [4]; [12]): 7.55 mL/min/kg | contribution of glomerular filtration to total CLR [5]: 5% and ~ 5% | inter-individual variability in predose plasma concentrations (OAT1/3 [6]; Indian population): 33 fold and ~ 33 fold | AUC0-24h (OAT1/3 [6]; Shen 2019 Study 1, baseline): 46 ± 53.7 ng·h/mL | CLR (OAT1/3 [6]; Shen 2019 Study 1, baseline): 226.7 ± 268.3 mL/min | Cmax (OAT1/3 [6]; Shen 2019 Study 1, baseline): 3.3 ± 4.6 ng/mL | AUC ratio (OAT1/3 [6]; [15]): 3.1 | CLR ratio (OAT1/3 [6]; [15]): 0.37 | Cmax ratio (OAT1/3 [6]; [15]): 3.1 | AUC0-24h (OAT1/3 [6]; [16]): 116 ± 151 ng·h/mL | CLR (OAT1/3 [6]; [16]): 65 ± 55 mL/min | Cmax (OAT1/3 [6]; [16]): 9.3 ± 11.5 ng/mL | AUC0-24h (OAT1/3 [6]; Shen 2019 Study 2, baseline): 57.9 ± 75.7 ng·h/mL | CLR (OAT1/3 [6]; Shen 2019 Study 2, baseline): 221.7 ± 221.7 mL/min | Cmax (OAT1/3 [6]; Shen 2019 Study 2, baseline): 3.6 ± 4.5 ng/mL | AUC ratio (OAT1/3 [6]; [17]): 3.2 | CLR ratio (OAT1/3 [6]; [17]): 0.4 | Cmax ratio (OAT1/3 [6]; [17]): 3.4 | AUC0-24h (OAT1/3 [6]; [18]): 152 ± 174 ng·h/mL | CLR (OAT1/3 [6]; [18]): 67.6 ± 41.2 mL/min | Cmax (OAT1/3 [6]; [18]): 10.1 ± 10.2 ng/mL | AUC0-24h (OAT1/3 [6]; Willemin 2021, baseline): 71.8 ± 21.3 ng·h/mL | CLR (OAT1/3 [6]; Willemin 2021, baseline): 328.3 ± 203.3 mL/min | Cmax (OAT1/3 [6]; Willemin 2021, baseline): 3.6 ± 0.8 ng/mL | AUC ratio (OAT1/3 [6]; [19]): 3.7 | CLR ratio (OAT1/3 [6]; [19]): 0.17 | Cmax ratio (OAT1/3 [6]; [19]): 3.7 | AUC0-24h (OAT1/3 [6]; [20]): 271 ± 93 ng·h/mL | CLR (OAT1/3 [6]; [20]): 53.3 ± 25 mL/min | Cmax (OAT1/3 [6]; [20]): 13.7 ± 4.1 ng/mL | fu,plasma [7]: 0.08–0.1 | fu,plasma ([7]; ref 13 (supplement ref 7)): 0.092 | ft (fraction transported) OAT2 (OAT2; PDA renal secretion): < 0.1 | contribution of OAT2-specific active secretion to total CLR (OAT2; PDA, in vitro-in vivo scaling): 6% | active uptake clearance via OAT2, scaled (OAT2; [12]): 0.35 mL/min/kg

C=CC(=O)N1C[C@H](Nc2ncnc3[nH]ccc23)CC[C@@H]1C [Ritlecitinib]
change in PDA plasma concentration in the clinic (OAT1/3 [3]; ritlecitinib): no‐change | change in the AUC0-24h and Cmax of PDA (OAT1/3 [3]; ritlecitinib administration, Study 2): no significant change
